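Step 1: Grow cells in 96-well plates. Step 2: Expose to compound for 48 hours at 5 concentrations. Step 3: Interpolate endpoints linearly; if unreached, use highest concentration. GI50 is the concentration that inhibits growth by half. At the TGI there is no net growth.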
test system: MDA-MB-468 breast; assay: inhibition of tumour cell growth, NCI panel, 48 h

`COc1cc2ncnc(-n3ncc4cc(NC(=O)Nc5ccc(Cl)c(Cl)c5)ccc43)c2cc1OC` and `CCN1CCN(Cc2ccc(NC(=O)Nc3nc4ccc(Oc5ccnc(C(=O)NC)c5)cc4s3)cc2C(F)(F)F)CC1` are within 1.5-fold of each other in GI50: 2170 nM for the first, 1660 nM for the second.

Going from `Cc1ncc(C(=O)Nc2ccc(CN3CCN(C)CC3)c(C(F)(F)F)c2)cc1C#Cc1ccc(N)nc1` to `CN1CCN(Cc2ccc(NC(=O)c3cncc(C#Cc4cnc(N)cc4C#N)c3)cc2C(F)(F)F)CC1`, the GI50 rises from 368 nM to 2010 nM (5.5-fold).

First: C#CCNC(=S)N/N=C(\C)c1ccccn1
Second: CSc1ccc(/C(=N/N=C(N)N)c2ccccc2)cc1
The GI50 of the first is 13-fold lower: 33.5 nM for the first, 451 nM for the second.

`CN(Cc1ccc(C(F)(F)F)cc1)CC(O)C(=O)Nc1ccc(Cl)cc1` (stereo not given) and `O=C(/C=C/c1ccc(C(F)(F)F)cc1)Nc1ccc(C=C2c3ccccc3C(=O)c3ccccc32)cc1` are within 1.5-fold of each other in GI50: 1370 nM for the first, 1990 nM for the second.

First: Cc1cc(C)c2c(n1)sc1c(N)ncnc12
Second: Cc1cc(Nc2nc(C(=O)Nc3ccccc3)nc3ccccc23)n[nH]1
The GI50 of the first is 2.2-fold higher: 19900 nM for the first, 9150 nM for the second.

First: COC(=O)C12CC(NC(=O)c3csc([C@@H](C[C@H](C(C)C)N(C)C(=O)[C@@H](NC(=O)[C@H]4CCCCN4C)C4CC4)OC(C)=O)n3)(C1)C2
Second: COc1ccc(/C=C/C(=O)c2ccc(-n3cc(CN4CCN(c5cc6c(cc5F)c(=O)c(C(=O)O)cn6C5CC5)CC4)nn3)cc2)cc1OC
The GI50 of the first is 120-fold lower: 16.9 nM for the first, 1960 nM for the second.

Compared with `CCCCCCCCOC(=O)c1c(C)[nH]c(/C=C2\N=C(c3ccc[nH]3)C=C2OC)c1C`, `CCCCCN(CCCCC)CC(O)c1cc(Cl)ccc1OC` (stereo not given) is 110-fold higher in GI50: 86.8 nM for the first, 9710 nM for the second.

Compared with `NC(=O)[C@@H](CC1CC1)[C@@H](CCC(F)(F)F)C(=O)N[C@H]1N=C(c2ccccc2)c2cccc(F)c2NC1=O`, `O=C(Nc1ccc(-n2ccc3c(NC(=O)c4ccccc4)ncnc32)cc1)c1cccc(C(F)(F)F)c1` is lower in GI50: > 100000 nM for the first, 4050 nM for the second.

Going from `CN(C)CCNC(=O)c1ccc(-c2nc3ccc4[nH]ncc4c3c3c2C2CCC3C2)cc1` (stereo not given) to `Cc1ccc2nc(-c3ccc(OCC(=O)N=Nc4c(O)[nH]c5ccccc45)cc3)[nH]c2c1`, the GI50 rises from 1120 nM to 2090 nM (1.9-fold).

Going from `CC1=C2C(=CC(C)(C)[C@@H]2O)C(=O)[C@](C)(O)C12CC2` to `CCC(C)Oc1nc2c(c(=O)n(C)c(=O)n2C)n1C` (stereo not given), the GI50 rises from 12.9 nM to > 100000 nM.

Going from `O=S1(=O)N(Cc2ccccc2)[C@@H](Cc2ccccc2)[C@H](O)[C@H](O)[C@H](Cc2ccccc2)N1Cc1ccccc1` to `CC(Nc1c(C#N)cnc2ccc(-c3cncc(-c4n[nH]c(=O)o4)c3)cc12)c1ccccc1` (stereo not given), the GI50 falls from 2980 nM to 1230 nM (2.4-fold).

Compared with `CCN(Cc1cc(F)ccc1F)c1ccc(CO)c(Cl)c1`, `O=C(Nc1ccc(F)cc1F)c1cc(Cl)ccc1O` is 100-fold higher in GI50: 16.4 nM for the first, 1640 nM for the second.

`CC1CN(S(=O)(=O)c2oc(-c3ccc(Cl)cc3)nc2C#N)CC(C)O1` (stereo not given) and `N#C/C(=C\c1ccc([N+](=O)[O-])s1)c1nc2cc(Cl)ccc2s1` are within 1.5-fold of each other in GI50: 1870 nM for the first, 2360 nM for the second.

Going from `CCn1c(-c2cc3c([nH]c4ccccc43)c(-c3cccc(O)c3)n2)n[nH]c1=S` to `C1=C/COCc2cc(ccc2OCCN2CCCC2)Nc2nccc(n2)-c2ccc(o2)COC/1`, the GI50 falls from 3190 nM to 1490 nM (2.1-fold).

First: NCCCCC1NC(=O)C(CC(=O)O)NC(=O)CNC(=O)C(CCCN=C(N)N)NC(=O)C(N)CSSCC(C(=O)O)NC(=O)C(CC(=O)O)NC(=O)C2CCCN2C(=O)CNC1=O (stereo not given)
Second: c1cc(-c2nnc(SSc3ncnc4nc[nH]c34)o2)ccn1
The GI50 of the first is higher: > 100000 nM for the first, 251 nM for the second.

`COc1cc2ncnc(-n3ncc4cc(NC(=O)Nc5ccc(Cl)c(Cl)c5)ccc43)c2cc1OC` and `CCN1CCN(Cc2ccc(NC(=O)Nc3nc4ccc(Oc5ccnc(C(=O)NC)c5)cc4s3)cc2C(F)(F)F)CC1` are within 1.5-fold of each other in TGI: 4520 nM for the first, 3200 nM for the second.

Going from `Cc1ncc(C(=O)Nc2ccc(CN3CCN(C)CC3)c(C(F)(F)F)c2)cc1C#Cc1ccc(N)nc1` to `CN1CCN(Cc2ccc(NC(=O)c3cncc(C#Cc4cnc(N)cc4C#N)c3)cc2C(F)(F)F)CC1`, the TGI rises from 2120 nM to 5300 nM (2.5-fold).

First: C#CCNC(=S)N/N=C(\C)c1ccccn1
Second: CSc1ccc(/C(=N/N=C(N)N)c2ccccc2)cc1
The TGI of the first is 32-fold lower: 273 nM for the first, 8600 nM for the second.

Compared with `CN(Cc1ccc(C(F)(F)F)cc1)CC(O)C(=O)Nc1ccc(Cl)cc1` (stereo not given), `O=C(/C=C/c1ccc(C(F)(F)F)cc1)Nc1ccc(C=C2c3ccccc3C(=O)c3ccccc32)cc1` is 7.1-fold higher in TGI: 2910 nM for the first, 20800 nM for the second.

`Cc1cc(C)c2c(n1)sc1c(N)ncnc12` and `Cc1cc(Nc2nc(C(=O)Nc3ccccc3)nc3ccccc23)n[nH]1` cannot be ordered by TGI: > 25000 nM for the first, > 25000 nM for the second.

Going from `COC(=O)C12CC(NC(=O)c3csc([C@@H](C[C@H](C(C)C)N(C)C(=O)[C@@H](NC(=O)[C@H]4CCCCN4C)C4CC4)OC(C)=O)n3)(C1)C2` to `COc1ccc(/C=C/C(=O)c2ccc(-n3cc(CN4CCN(c5cc6c(cc5F)c(=O)c(C(=O)O)cn6C5CC5)CC4)nn3)cc2)cc1OC`, the TGI falls from > 16700 nM to 5240 nM.

Compared with `CCCCCCCCOC(=O)c1c(C)[nH]c(/C=C2\N=C(c3ccc[nH]3)C=C2OC)c1C`, `CCCCCN(CCCCC)CC(O)c1cc(Cl)ccc1OC` (stereo not given) is 8.7-fold higher in TGI: 2670 nM for the first, 23100 nM for the second.

Compared with `NC(=O)[C@@H](CC1CC1)[C@@H](CCC(F)(F)F)C(=O)N[C@H]1N=C(c2ccccc2)c2cccc(F)c2NC1=O`, `O=C(Nc1ccc(-n2ccc3c(NC(=O)c4ccccc4)ncnc32)cc1)c1cccc(C(F)(F)F)c1` is lower in TGI: > 100000 nM for the first, 20400 nM for the second.

Compared with `CN(C)CCNC(=O)c1ccc(-c2nc3ccc4[nH]ncc4c3c3c2C2CCC3C2)cc1` (stereo not given), `Cc1ccc2nc(-c3ccc(OCC(=O)N=Nc4c(O)[nH]c5ccccc45)cc3)[nH]c2c1` is 1.6-fold higher in TGI: 3140 nM for the first, 4900 nM for the second.

Going from `CC1=C2C(=CC(C)(C)[C@@H]2O)C(=O)[C@](C)(O)C12CC2` to `CCC(C)Oc1nc2c(c(=O)n(C)c(=O)n2C)n1C` (stereo not given), the TGI rises from 36.2 nM to > 100000 nM.

Compared with `O=S1(=O)N(Cc2ccccc2)[C@@H](Cc2ccccc2)[C@H](O)[C@H](O)[C@H](Cc2ccccc2)N1Cc1ccccc1`, `CC(Nc1c(C#N)cnc2ccc(-c3cncc(-c4n[nH]c(=O)o4)c3)cc12)c1ccccc1` (stereo not given) is 2-fold lower in TGI: 7170 nM for the first, 3660 nM for the second.

Going from `CCN(Cc1cc(F)ccc1F)c1ccc(CO)c(Cl)c1` to `O=C(Nc1ccc(F)cc1F)c1cc(Cl)ccc1O`, the TGI rises from 41.1 nM to 5070 nM (120-fold).

`CC1CN(S(=O)(=O)c2oc(-c3ccc(Cl)cc3)nc2C#N)CC(C)O1` (stereo not given) and `N#C/C(=C\c1ccc([N+](=O)[O-])s1)c1nc2cc(Cl)ccc2s1` are within 1.5-fold of each other in TGI: 4160 nM for the first, 5760 nM for the second.

First: CCn1c(-c2cc3c([nH]c4ccccc43)c(-c3cccc(O)c3)n2)n[nH]c1=S
Second: C1=C/COCc2cc(ccc2OCCN2CCCC2)Nc2nccc(n2)-c2ccc(o2)COC/1
The TGI of the first is 4.8-fold higher: 15200 nM for the first, 3180 nM for the second.

Compared with `NCCCCC1NC(=O)C(CC(=O)O)NC(=O)CNC(=O)C(CCCN=C(N)N)NC(=O)C(N)CSSCC(C(=O)O)NC(=O)C(CC(=O)O)NC(=O)C2CCCN2C(=O)CNC1=O` (stereo not given), `c1cc(-c2nnc(SSc3ncnc4nc[nH]c34)o2)ccn1` is lower in TGI: > 100000 nM for the first, 967 nM for the second.

Source: PubChem BioAssay (NCI)
